Among the data in ChEMBL document CHEMBL3886587, “Antagonists of prostaglandin EP3 receptor” (2016) are Ki values, retold here.

The structures appear in SMILES notation.

In this experiment the target is T1, Prostaglandin E2 receptor EP3 subtype (Homo sapiens, UniProt P43115).
T1 sequence (P43115 whole entry): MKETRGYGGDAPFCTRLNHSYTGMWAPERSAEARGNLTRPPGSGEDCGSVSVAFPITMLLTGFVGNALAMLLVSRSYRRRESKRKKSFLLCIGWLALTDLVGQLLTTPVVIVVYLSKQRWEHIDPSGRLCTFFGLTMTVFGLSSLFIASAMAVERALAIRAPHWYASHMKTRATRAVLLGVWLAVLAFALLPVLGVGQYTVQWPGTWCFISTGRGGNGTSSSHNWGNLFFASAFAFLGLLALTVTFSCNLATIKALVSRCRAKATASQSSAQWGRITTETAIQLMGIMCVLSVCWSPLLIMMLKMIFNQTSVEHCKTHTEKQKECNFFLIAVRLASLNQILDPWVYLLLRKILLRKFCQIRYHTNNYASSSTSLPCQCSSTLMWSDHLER
Briefly: EP3 Radioligand SPA Binding Assay: Test compounds were half log serially diluted in 100% DMSO (J. T. Baker #922401). 1 uL of each compound was added to appropriate wells of a 384-well plate (Matrix Cat #4322). Unlabeled PGE2 (Tocris Cat #2296) at a final concentration of 1 uM was used to determine non-specific binding. 1 uL of 100% DMSO (J. T. Baker #922401) was used to determine total binding. Millipore EP3 Chem1 membranes (prepared in-house from cell paste derived from the Millipore ChemiSCREEN Human Recombinant EP3 Prostanoid Receptor Calcium-Optimized Stable Cell Line (Millipore Cat #HTS092C. http://www.millipore.com/catalogue/item/hts092c)) were thawed and diluted in binding buffer (50 mM Hepes pH 7.4 (Lonza Cat #17-737), 5 mM MgCl2 (Sigma-M1028), and 0.1% BSA (Sigma A-7409)) to a final concentration of 1 ug/25 uL. 25 uL of diluted membranes were added to prepared compound plates. WGA coated PVT SPA Beads (Perkin Elmer Cat #RPNQ0060) were diluted in binding buffer to a concentration of 4 ug/ul, and 25 uL of the SPA bead mixture was then added to each well for a final assay concentration of 100 ug/well. [3H]-PGE2 (Perkin Elmer Cat #NET428) was diluted in binding buffer to a concentration of […], and 25 uL was added to all wells for a final assay concentration of 1.125 nM. Plates were incubated for 30 minutes at r.t. (approximately 25° C.) with shaking. […].

On to `Cn1ncc2c(F)cc(-c3ccc([C@@]4(C)CCCNC4=O)c(=O)[nH]3)cc21`, for which the Ki (usually the dissociation constant of the complex between target and ligand, obtained from inhibition or displacement) turned out to be 13.9 nM.
